Values quoted from earlier work in patent US20070098676A1, “FUNCTIONALLY DIVERSE MACROMOLECULES AND THEIR SYNTHESIS” (priority 2005, published 2007).

Test system: RSV
Conditions: study conducted in 2001 (Huntley et al., 2002)

SMILES: NC(=O)CN(CC(N)=O)S(=O)(=O)c1cccc(Nc2nc(Nc3cccc(S(=O)(=O)N(CC(N)=O)CC(N)=O)c3)nc(Nc3ccc(-c4ccc(Nc5nc(Nc6cccc(S(=O)(=O)N(CC(N)=O)CC(N)=O)c6)nc(Nc6cccc(S(=O)(=O)N(CC(N)=O)CC(N)=O)c6)n5)cc4S(=O)(=O)O)c(S(=O)(=O)O)c3)n2)c1 [RFI-641]
- inhibition of RSV: potent and selective inhibitor of RSV
